Assay results as given in publication PMC4730408, “Genistein and Glyceollin Effects on ABCC2 (MRP2) and ABCG2 (BCRP) in Caco-2 Cells” (International Journal of Environmental Research and Public …, 2015).

Biological target: MRP2 (ABCC2, multidrug resistance protein 2) (Homo sapiens, UniProt Q92887)
Test: calcein retention (calcein-AM) in Caco-2 cells; CDF transport across Caco-2 monolayers
Type: cell-based

MRP2 (ABCC2, multidrug resistance protein 2), sequence (Q92887 whole entry): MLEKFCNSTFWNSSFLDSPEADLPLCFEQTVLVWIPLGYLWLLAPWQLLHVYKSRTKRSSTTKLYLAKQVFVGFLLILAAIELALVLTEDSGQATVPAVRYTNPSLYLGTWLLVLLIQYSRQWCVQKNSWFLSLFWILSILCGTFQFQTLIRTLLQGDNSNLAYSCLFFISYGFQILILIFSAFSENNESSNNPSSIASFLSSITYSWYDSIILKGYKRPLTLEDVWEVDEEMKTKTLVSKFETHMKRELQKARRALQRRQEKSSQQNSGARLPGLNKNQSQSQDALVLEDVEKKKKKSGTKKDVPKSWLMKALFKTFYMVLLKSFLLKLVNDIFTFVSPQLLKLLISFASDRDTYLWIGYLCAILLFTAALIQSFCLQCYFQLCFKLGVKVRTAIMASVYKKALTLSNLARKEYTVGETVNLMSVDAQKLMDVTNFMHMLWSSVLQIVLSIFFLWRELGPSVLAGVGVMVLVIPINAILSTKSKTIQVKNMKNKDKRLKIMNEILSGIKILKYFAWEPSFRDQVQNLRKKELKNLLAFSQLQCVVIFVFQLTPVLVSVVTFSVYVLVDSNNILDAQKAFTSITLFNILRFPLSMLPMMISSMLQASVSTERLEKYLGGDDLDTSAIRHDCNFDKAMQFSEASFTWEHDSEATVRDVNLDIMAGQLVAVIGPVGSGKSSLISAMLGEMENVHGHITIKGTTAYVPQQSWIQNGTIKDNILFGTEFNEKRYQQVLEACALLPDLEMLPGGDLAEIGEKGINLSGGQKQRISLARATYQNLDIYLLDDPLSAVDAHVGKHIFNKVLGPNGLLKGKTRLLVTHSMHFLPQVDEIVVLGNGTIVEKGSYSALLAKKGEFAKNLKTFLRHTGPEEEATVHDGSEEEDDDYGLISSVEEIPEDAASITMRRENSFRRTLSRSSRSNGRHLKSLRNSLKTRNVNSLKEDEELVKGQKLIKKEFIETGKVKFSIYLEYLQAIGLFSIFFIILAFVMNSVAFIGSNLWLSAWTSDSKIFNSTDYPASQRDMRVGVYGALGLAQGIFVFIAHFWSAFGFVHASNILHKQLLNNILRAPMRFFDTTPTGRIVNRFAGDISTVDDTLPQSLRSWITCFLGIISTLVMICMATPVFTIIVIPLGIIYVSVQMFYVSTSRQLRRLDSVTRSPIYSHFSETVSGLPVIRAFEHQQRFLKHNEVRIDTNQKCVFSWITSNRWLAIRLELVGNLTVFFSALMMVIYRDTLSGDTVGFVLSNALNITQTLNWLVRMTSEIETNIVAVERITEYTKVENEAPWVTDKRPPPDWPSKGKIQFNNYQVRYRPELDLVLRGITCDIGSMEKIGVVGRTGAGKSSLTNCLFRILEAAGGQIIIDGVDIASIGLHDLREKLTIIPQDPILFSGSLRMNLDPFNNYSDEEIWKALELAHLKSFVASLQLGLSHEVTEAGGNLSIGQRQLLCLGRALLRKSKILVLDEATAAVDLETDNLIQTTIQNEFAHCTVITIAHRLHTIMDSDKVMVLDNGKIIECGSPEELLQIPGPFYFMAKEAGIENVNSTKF

CN(C)C(=O)CCSC(SCCC(=O)O)c1cccc(/C=C/c2ccc3ccc(Cl)cc3n2)c1 (stereo not shown) [MK-571]
EC50: 20 µM
